# Like-named read-outs stand apart in the source and are kept apart here.
# Tests used:
# [1] = target: T1, enzymes (Bioprint panel) (UniProt A0ABM2YAB8); assay: biochemical; conditions: read-out: Reference Compound IC50
# T1 construct: other: MT3 (ML2) (agonist radioligand); 10 μM
# [2] = target: T2, enzymes (Bioprint panel) (Homo sapiens, UniProt O00408); assay: biochemical; conditions: PDE2A1 (h); read-out: Reference Compound IC50
# T2 construct: other: PDE2A1 (h); 10 μM; PDE2A1 (h)
# [3] = target: T3, Sirtuin 6 (h) (Homo sapiens, UniProt Q8N6T7); conditions: reference compound; Fluorogenic HDAC 50 μM; 180 min/RT; cited from earlier work
# T3 sequence (Q8N6T7 whole entry): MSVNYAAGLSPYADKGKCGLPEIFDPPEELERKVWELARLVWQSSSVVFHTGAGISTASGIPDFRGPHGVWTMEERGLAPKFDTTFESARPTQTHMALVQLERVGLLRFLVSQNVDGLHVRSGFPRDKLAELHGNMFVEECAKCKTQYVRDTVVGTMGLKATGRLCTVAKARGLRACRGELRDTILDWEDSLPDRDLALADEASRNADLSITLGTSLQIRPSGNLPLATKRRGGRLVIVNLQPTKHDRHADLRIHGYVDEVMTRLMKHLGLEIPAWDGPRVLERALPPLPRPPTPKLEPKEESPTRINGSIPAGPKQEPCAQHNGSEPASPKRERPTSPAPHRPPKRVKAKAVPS
# [4] = target: T3, Sirtuin 6 (h); assay: Epigenetic enzyme assay, Sirtuins; assay type: biochemical; conditions: Table 10; read-out: Reference IC50
# [5] = target: receptors (Bioprint panel) (Homo sapiens, UniProt P14867); assay: biochemical; assay type: binding
# receptors (Bioprint panel) (Homo sapiens, UniProt P14867), sequence (P14867 28-456): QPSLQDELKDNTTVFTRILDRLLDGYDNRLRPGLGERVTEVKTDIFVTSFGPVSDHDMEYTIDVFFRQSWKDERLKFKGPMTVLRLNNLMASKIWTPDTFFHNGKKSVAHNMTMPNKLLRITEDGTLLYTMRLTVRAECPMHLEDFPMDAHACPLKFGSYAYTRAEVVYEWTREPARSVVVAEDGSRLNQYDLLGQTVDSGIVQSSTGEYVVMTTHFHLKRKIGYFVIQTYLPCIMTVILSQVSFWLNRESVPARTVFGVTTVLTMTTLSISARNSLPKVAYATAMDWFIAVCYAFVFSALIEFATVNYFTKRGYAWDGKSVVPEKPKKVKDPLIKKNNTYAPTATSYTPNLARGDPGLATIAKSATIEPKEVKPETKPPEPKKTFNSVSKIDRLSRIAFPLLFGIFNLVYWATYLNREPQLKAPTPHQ
# [6] = target: T4, BRD3(2) (h) bromodomain (Homo sapiens, UniProt Q15059); assay: Epigenetic binding assay, Bromodomain; conditions: Table 4; read-out: Reference IC50
# T4 construct: Bromodomain
# T4 sequence (Q15059 306-415 limits assumed): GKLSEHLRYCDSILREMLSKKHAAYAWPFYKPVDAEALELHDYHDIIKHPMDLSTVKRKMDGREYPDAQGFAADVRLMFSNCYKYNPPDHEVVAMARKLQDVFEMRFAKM
# [7] = target: T4, BRD3(2) (h) bromodomain; conditions: ligand biotin-H4 di acetyl Lys 5/8 100 nM; 30 min/RT; AlphaScreen; read-out: Reference IC50; cited from earlier work
# [8] = target: receptors (Bioprint panel) (Homo sapiens, UniProt P41597); assay: biochemical; assay type: binding; conditions: CHEMOKINES CCR2 (h) (agonist radioligand); read-out: Reference Compound IC50
# [9] = target: receptors (Bioprint panel) (Homo sapiens, UniProt P41595); assay: biochemical; assay type: binding; conditions: read-out: Reference Compound IC50
# [10] = target: receptors (Bioprint panel) (Homo sapiens, UniProt P28335); assay: biochemical; assay type: binding; conditions: read-out: Reference Compound IC50
# [11] = target: T5, enzymes (Bioprint panel); assay: biochemical; conditions: read-out: Reference Compound IC50
# T5 construct: other: ATPase (Na+/K+); 10 μM
# [12] = target: T6, GCN5L2(h) (Homo sapiens, UniProt Q92830); assay: Epigenetic enzyme assay, Histone acetyltransferases (HATs); assay type: biochemical; conditions: Table 10; read-out: Reference IC50
# T6 sequence (Q92830 whole entry): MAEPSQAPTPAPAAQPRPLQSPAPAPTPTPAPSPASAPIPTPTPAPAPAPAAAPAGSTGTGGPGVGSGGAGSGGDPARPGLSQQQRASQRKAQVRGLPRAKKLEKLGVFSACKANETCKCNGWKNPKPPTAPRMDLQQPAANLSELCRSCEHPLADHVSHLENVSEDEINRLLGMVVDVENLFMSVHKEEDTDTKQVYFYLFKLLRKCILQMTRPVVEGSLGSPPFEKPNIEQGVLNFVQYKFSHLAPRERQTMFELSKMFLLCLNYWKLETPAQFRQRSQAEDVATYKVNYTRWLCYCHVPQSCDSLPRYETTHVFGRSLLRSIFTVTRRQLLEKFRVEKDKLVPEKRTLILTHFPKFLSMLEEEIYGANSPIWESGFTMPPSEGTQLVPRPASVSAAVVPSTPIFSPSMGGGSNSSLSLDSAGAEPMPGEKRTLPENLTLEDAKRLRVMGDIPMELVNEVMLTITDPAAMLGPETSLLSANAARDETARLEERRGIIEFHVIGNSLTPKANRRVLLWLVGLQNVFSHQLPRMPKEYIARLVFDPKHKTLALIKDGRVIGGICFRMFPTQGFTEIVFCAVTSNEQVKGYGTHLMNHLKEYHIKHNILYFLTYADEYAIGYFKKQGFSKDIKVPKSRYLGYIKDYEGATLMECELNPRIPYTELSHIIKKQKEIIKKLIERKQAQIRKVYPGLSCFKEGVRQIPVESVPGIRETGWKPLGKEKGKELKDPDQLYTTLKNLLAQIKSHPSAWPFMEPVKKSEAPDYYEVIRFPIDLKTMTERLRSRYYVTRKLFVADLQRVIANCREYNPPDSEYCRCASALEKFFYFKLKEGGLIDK
# [13] = target: T6, GCN5L2(h); conditions: reference compound; biotin-H3K27me3 50 nM; 10 min/RT; LANCE; cited from earlier work
# [14] = target: receptors (Bioprint panel) (Homo sapiens, UniProt P35348); assay: biochemical; assay type: binding; conditions: read-out: Reference Compound IC50
# [15] = target: receptors (Bioprint panel) (Homo sapiens, UniProt Q9GZV3); assay: biochemical; assay type: binding; conditions: choline transporter (CHT1) (h) (antagonist radioligand); read-out: Reference Compound IC50
# receptors (Bioprint panel) (Homo sapiens, UniProt Q9GZV3), sequence (Q9GZV3 whole entry): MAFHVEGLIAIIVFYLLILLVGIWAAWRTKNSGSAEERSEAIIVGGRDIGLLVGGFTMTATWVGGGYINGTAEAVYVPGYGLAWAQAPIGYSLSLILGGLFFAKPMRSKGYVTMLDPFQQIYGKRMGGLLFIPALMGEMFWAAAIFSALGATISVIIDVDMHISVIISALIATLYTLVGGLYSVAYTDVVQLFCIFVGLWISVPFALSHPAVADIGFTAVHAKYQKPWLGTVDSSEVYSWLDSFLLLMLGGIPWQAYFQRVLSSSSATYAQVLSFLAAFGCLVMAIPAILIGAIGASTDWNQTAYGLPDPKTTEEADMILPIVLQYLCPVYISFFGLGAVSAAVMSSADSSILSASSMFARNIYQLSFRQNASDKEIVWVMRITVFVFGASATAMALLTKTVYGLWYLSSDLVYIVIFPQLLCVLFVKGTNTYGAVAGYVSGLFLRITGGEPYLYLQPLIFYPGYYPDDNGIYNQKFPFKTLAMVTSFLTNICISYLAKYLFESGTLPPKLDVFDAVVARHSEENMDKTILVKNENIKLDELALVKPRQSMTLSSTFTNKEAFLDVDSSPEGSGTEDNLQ
# [16] = target: enzymes (Bioprint panel); assay: biochemical; conditions: COMT (catechol- O-methyl transferase); read-out: Reference Compound IC50
# [17] = target: receptors (Bioprint panel) (Homo sapiens, UniProt Q9H3N8); assay: biochemical; assay type: binding; conditions: read-out: Reference Compound IC50
# [18] = target: enzymes (Bioprint panel) (Mus musculus, UniProt P29477); assay: biochemical; conditions: inducible NOS; read-out: Reference Compound IC50
# [19] = target: T7, JMJD2B (h) (Homo sapiens, UniProt O94953); assay: Epigenetic enzyme assay, Demethylases (KDMs); assay type: biochemical
# T7 sequence (O94953 1-1096): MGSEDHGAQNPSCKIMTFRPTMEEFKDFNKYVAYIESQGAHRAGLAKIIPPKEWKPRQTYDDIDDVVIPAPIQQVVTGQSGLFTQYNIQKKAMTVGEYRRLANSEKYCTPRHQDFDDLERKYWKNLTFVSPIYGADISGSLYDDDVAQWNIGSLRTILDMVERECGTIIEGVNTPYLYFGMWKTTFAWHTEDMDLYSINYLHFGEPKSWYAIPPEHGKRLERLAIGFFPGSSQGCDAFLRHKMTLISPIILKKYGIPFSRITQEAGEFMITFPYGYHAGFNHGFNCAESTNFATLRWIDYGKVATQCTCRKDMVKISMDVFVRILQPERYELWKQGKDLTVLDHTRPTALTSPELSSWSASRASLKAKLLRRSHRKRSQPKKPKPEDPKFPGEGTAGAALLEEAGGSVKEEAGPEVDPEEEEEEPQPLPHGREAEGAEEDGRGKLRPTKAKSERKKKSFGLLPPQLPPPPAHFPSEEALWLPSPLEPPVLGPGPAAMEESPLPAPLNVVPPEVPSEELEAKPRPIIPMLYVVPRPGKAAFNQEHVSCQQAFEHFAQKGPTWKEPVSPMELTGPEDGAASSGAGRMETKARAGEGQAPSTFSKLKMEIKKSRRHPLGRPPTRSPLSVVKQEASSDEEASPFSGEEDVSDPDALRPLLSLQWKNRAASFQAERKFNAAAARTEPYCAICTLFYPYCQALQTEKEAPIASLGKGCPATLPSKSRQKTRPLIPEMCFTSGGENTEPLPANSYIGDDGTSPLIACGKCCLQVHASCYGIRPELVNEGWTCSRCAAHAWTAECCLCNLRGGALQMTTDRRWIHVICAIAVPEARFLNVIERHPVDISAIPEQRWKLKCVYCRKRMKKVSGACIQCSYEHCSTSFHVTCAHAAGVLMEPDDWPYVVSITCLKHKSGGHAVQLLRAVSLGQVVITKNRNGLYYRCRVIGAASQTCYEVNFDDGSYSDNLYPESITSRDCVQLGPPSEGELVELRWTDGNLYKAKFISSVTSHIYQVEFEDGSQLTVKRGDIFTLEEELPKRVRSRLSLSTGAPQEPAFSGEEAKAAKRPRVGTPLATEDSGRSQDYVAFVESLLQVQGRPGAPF
# [20] = target: T8, FBXL10 (h) (Homo sapiens, UniProt Q8NHM5); assay: Epigenetic enzyme assay, Demethylases (KDMs); assay type: biochemical; conditions: read-out: Reference IC50
# T8 sequence (Q8NHM5 1-1336): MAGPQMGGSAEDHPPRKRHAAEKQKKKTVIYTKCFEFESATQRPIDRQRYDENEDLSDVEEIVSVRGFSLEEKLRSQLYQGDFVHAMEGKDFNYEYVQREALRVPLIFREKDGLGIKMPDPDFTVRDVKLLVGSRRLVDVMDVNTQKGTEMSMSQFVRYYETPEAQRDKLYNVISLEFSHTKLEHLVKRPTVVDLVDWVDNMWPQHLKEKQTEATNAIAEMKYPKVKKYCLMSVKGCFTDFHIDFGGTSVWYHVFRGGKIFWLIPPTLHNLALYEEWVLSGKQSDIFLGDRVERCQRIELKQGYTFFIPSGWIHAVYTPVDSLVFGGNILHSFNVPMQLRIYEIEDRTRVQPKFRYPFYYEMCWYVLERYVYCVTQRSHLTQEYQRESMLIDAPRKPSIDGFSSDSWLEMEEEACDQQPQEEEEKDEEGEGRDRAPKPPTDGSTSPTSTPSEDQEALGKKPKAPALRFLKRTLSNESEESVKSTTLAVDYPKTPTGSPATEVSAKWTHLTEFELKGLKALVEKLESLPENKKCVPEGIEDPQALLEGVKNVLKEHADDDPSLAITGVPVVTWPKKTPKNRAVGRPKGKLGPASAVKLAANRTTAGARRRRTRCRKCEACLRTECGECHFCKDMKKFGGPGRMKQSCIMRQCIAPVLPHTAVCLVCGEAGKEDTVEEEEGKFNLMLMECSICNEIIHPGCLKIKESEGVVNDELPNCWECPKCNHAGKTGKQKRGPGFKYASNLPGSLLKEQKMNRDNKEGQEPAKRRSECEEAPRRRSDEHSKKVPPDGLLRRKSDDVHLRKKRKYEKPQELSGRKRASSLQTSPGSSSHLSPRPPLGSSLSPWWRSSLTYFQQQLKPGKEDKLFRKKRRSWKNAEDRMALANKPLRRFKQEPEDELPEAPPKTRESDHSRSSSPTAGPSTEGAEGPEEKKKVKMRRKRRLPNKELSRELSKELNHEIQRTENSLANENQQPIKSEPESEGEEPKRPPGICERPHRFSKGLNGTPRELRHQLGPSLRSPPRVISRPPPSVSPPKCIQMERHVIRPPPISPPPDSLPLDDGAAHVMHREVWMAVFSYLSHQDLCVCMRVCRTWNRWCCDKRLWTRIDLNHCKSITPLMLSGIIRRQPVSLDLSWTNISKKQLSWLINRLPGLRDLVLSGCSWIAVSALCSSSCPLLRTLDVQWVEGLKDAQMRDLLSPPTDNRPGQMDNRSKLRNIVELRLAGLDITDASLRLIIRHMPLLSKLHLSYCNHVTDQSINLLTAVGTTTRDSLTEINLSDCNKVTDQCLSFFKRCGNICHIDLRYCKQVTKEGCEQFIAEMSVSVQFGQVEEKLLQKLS
# [21] = target: T9, JARID1A (h) (Homo sapiens, UniProt P29375); conditions: read-out: Reference IC50; cited from earlier work
# T9 sequence (P29375 whole entry): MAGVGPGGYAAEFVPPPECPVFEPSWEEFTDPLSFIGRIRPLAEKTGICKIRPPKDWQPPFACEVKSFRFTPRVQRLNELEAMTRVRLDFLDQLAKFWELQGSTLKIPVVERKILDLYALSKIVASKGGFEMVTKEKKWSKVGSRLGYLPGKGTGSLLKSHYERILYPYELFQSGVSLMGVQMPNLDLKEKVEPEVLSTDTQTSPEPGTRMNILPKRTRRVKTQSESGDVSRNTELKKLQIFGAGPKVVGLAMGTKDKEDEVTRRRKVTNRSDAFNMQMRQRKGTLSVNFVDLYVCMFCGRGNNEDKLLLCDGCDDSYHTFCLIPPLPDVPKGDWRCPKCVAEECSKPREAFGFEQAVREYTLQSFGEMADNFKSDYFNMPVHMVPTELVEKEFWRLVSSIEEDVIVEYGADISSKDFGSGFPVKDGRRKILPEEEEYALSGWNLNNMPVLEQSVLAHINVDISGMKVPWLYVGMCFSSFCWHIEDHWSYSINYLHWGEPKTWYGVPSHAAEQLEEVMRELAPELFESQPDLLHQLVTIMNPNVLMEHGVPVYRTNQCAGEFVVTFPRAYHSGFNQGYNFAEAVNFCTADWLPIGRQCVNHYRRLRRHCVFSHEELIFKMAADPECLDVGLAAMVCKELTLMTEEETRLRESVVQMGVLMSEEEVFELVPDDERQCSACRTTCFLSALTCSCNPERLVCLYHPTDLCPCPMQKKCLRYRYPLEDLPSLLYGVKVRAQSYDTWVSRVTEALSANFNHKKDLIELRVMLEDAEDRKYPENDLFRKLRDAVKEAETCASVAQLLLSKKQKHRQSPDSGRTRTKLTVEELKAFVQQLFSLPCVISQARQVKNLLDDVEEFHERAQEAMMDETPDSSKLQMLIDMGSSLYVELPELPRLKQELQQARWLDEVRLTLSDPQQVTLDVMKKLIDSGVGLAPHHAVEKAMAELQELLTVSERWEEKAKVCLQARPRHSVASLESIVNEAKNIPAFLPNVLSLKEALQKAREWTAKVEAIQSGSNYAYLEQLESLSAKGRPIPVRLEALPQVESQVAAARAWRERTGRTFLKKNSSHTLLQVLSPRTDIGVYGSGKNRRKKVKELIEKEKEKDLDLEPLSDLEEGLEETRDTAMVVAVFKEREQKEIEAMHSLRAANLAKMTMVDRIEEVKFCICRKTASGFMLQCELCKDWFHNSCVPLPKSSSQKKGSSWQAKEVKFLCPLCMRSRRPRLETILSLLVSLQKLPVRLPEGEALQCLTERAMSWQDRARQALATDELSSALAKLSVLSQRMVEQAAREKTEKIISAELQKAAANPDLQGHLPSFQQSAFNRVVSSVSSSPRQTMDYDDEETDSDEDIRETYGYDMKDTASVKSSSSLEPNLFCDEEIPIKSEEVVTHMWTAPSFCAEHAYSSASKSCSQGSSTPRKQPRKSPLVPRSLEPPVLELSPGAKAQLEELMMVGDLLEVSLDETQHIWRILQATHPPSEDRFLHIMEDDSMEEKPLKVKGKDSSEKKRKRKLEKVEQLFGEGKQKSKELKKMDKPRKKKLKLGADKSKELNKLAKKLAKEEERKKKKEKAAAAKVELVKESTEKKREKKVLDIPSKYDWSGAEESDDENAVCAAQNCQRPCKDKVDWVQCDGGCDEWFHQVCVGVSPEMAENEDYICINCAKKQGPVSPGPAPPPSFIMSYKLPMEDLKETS
# [22] = target: T9, JARID1A (h); assay: Epigenetic enzyme assay, Demethylases (KDMs); assay type: biochemical
# [23] = target: T8, FBXL10 (h); conditions: read-out: Reference IC50; cited from earlier work
# [24] = target: T7, JMJD2B (h); conditions: read-out: Reference IC50; cited from earlier work
# [25] = target: CYP2B6 (Bupropion Substrate) (Homo sapiens, UniProt P20813); assay: Cytochrome P450 Inhibition (CYP panel)
# CYP2B6 (Bupropion Substrate), sequence (P20813 whole entry): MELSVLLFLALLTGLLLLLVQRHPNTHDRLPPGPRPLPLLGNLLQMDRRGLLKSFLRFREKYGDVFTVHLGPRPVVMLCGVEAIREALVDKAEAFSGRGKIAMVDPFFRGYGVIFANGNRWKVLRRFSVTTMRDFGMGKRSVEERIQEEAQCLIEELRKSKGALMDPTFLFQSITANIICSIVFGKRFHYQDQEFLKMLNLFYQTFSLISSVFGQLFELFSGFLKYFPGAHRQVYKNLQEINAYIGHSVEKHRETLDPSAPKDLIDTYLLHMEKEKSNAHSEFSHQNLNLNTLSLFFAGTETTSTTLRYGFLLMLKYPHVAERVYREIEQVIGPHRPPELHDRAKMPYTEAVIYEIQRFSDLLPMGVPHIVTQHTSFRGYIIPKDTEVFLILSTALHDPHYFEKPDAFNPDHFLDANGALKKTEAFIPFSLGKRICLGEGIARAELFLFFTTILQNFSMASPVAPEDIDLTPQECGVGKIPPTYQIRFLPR
# T1 sequence (A0ABM2YAB8 entry or part of it): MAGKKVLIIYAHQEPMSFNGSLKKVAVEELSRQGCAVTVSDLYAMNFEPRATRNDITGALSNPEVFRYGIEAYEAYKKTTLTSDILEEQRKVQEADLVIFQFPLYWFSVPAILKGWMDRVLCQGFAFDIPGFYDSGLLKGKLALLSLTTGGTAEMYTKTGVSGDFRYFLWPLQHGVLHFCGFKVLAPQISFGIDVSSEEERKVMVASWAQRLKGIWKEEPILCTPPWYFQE
compound,measurement,setting,value
COc1ccc2[nH]cc(CCNC(C)=O)c2c1 [melatonin],IC50,[1],160 nM
CCCCCC[C@@H]([C@@H](C)O)n1cnc2c(N)ncnc21 (racemic) [EHNA],IC50,[2],1200 nM
"NC(=O)C1CCCc2c1[nH]c1ccc(Cl)cc21 (racemic) [EX-527, reference compound]",IC50,[3],550000 nM
same,IC50,[4],550000 nM
NCc1cc(=O)[nH]o1 [muscimol],IC50,[5],53 nM
"COc1ccccc1S(=O)(=O)Nc1ccc2c(c1)CN(C)C(=O)N2 [PFI-1, reference compound]",IC50,[6],790 nM
same,IC50,[7],790 nM
MCP-1,IC50,[8],0.087 nM
COc1cc(CC(C)N)c(OC)cc1I (racemic) [(±)DOI],IC50,[9],6.7 nM
same,IC50,[10],0.24 nM
C[C@@H]1O[C@@H](O[C@H]2C[C@@H](O)[C@]3(CO)[C@H]4[C@H](O)C[C@]5(C)[C@@H](C6=CC(=O)OC6)CC[C@]5(O)[C@@H]4CC[C@]3(O)C2)[C@H](O)[C@H](O)[C@H]1O [ouabain],IC50,[11],250 nM
"CCCCCCCCCCCCCCCc1cccc(O)c1C(=O)O [Anacardic Acid, reference compound]",IC50,[12],4700 nM
same,IC50,[13],4700 nM
COc1cccc(OC)c1OCCNCC1COc2ccccc2O1 (stereo not drawn) [WB 4101],IC50,[14],0.27 nM
C[N+]1(C)CCOC(O)(c2ccc(-c3ccc(C4(O)C[N+](C)(C)CCO4)cc3)cc2)C1 (stereo not drawn) [hemicholinium-3],IC50,[15],4.6 nM
O=C(c1cc(O)c(O)c([N+](=O)[O-])c1)c1ccccc1F [Ro 41-0960],IC50,[16],61 nM
N=C(N)SCCc1cnc[nH]1 [imetit],IC50,[17],4.7 nM
CC(=N)NCc1cccc(CN)c1 [1400 W],IC50,[18],29 nM
"O=C(O)c1ccnc(C(=O)O)c1 [2,4 PDCA, reference compound]",IC50,[19]; read-out: IC50,95 nM
same,IC50,[19]; read-out: Reference IC50,140 nM
same,IC50,[20],610 nM
same,IC50,[21],180 nM
same,IC50,[22]; read-out: IC50,99 nM
same,IC50,[22]; read-out: Reference IC50,180 nM
same,IC50,[23],610 nM
same,IC50,[24],140 nM
"COC(=O)[C@H](c1ccccc1Cl)N1CCc2sccc2C1 [clopidogrel, reference compound]",IC50,[25],390 nM

# Reference: patent US11331299B2, “Medicinal use of serrulatane diterpenes” (The University of Sydney, priority 2016, dated 2022)
